Test results as given in PubChem BioAssay (NCI).
Several values for one entry are separate records, joined by “and”; a condition that tells them apart may be missing. Equal entries are not always repeated.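 Protocol summary: plate cells (96-well), add compound at 5 concentrations, incubate 48 h, interpolate endpoints linearly. Abbreviation: GI50, concentration required for 50% inhibition of growth. TGI is the concentration that stops growth completely.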

Legend:
Test in all cases: NCI anticancer screen, dose series, 48 h
CAKI-1 renal = system: CAKI-1 renal
HCT-116 colon = system: HCT-116 colon
HL-60(TB) leukemia = system: HL-60(TB) leukemia
HOP-62 NSCLC = system: HOP-62 NSCLC
IGROV1 ovarian = system: IGROV1 ovarian
MALME-3M melanoma = system: MALME-3M melanoma
NCI-H460 lung = system: NCI-H460 lung
OVCAR-3 ovarian = system: OVCAR-3 ovarian
SF-268 CNS = system: SF-268 CNS
SW-620 colon = system: SW-620 colon

| SMILES | GI50 (CAKI-1 renal) [nM] | TGI (CAKI-1 renal) [µM] | GI50 (HCT-116 colon) [nM] | TGI (HCT-116 colon) [µM] | GI50 (HL-60(TB) leukemia) [nM] | TGI (HL-60(TB) leukemia) [µM] | GI50 (HOP-62 NSCLC) [nM] | TGI (HOP-62 NSCLC) [µM] | GI50 (IGROV1 ovarian) [nM] | TGI (IGROV1 ovarian) [µM] | GI50 (MALME-3M melanoma) | TGI (MALME-3M melanoma) [µM] | GI50 (NCI-H460 lung) [nM] | TGI (NCI-H460 lung) [µM] | GI50 (OVCAR-3 ovarian) [nM] | TGI (OVCAR-3 ovarian) | GI50 (SF-268 CNS) [µM] | TGI (SF-268 CNS) [µM] | GI50 (SW-620 colon) [nM] | TGI (SW-620 colon) [µM] |
| --- | --- | --- | --- | --- | --- | --- | --- | --- | --- | --- | --- | --- | --- | --- | --- | --- | --- | --- | --- | --- |
| NC(=O)c1cc([N+](=O)[O-])c(Cl)c([N+](=O)[O-])c1 | 2590 | 7.12 | 1910 | 3.53 | 3210 | 8.55 | 5490 | 17.8 | 3010 | 7.9 | 2270 nM | 4.54 | 15700 | 38.2 | 1970 | 3.51 µM | 4.66 | 16.2 | 1900 | 3.99 |
| N=c1c2c(-c3ccccc3)c(-c3ccccc3)n(Cc3ccccc3)c2ncn1CCCO | 692 | 6.57 | 406 | 4.84 | 1770 | 4.74 | 1030 | 7.05 | 2080 | 28.1 | 1550 nM | 3.84 | 448 | 4.47 | 1380 | 8.08 µM | 0.894 | 20.8 | 377 | 15.5 |
| O=C1OC(CC(=O)c2ccc(Cl)cc2Cl)C(Cl)=C1Cl (stereo not drawn) |  | > 70.3 |  | 32.9 |  | > 75.6 |  | > 100 |  | > 69.9 |  | 39.2 |  | > 100 |  | > 100 µM |  | 62.7 |  | 38.1 |
| COc1ccc(-c2nnc(SCC(=O)Nc3ccc(/C(C)=N\O)cc3)n2-c2ccccc2)cc1OC | > 100000 | > 100 | 11300 | > 100 | > 100000 | > 100 | 2060 | 6.8 | 3740 | 29.4 | 17200 nM | > 100 | > 100000 | > 100 | 7870 | > 100 µM | 3.07 | 20.3 | > 100000 | > 100 |
| Cc1ccc(NC(=O)c2cc3ccccc3c(N=Nc3ccccc3O)c2O)c(C)c1 |  | 11.4 |  | 2.2 |  | 4.09 |  | 12.1 |  | 13.5 |  | 5.87 |  | 12.1 |  | 3.98 µM |  | 10.5 |  | 11.8 |
| Cc1cccc(NC(=O)c2cc3cc(N=Nc4ccccc4Cl)ccc3oc2=O)c1 |  | > 100 |  | 57.3 |  | > 100 |  | > 100 |  | > 100 |  | > 100 |  | > 100 |  | > 100 µM |  | 84.4 |  | > 100 |
| C/C(=C\c1ccn(-c2ccc(N)c(F)c2)n1)[C@@H]1C[C@@H]2O[C@]2(C)CCC[C@H](C)[C@H](O)[C@@H](C)C(=O)C(C)(C)[C@@H](O)CC(=O)O1 | 80.2 | > 50 | 7.96 | > 50 | 8.73 | 0.323 | 24.5 | > 50 | 59.9 | > 50 | 21.7 nM | > 50 | 9.38 | > 50 | 8.15 | 0.0747 µM | 0.0418 | > 50 | 10.3 | > 50 |
| O=C(/C=C/c1ccc(Cl)c(Cl)c1)c1ccc(F)cc1 |  | 60.8 |  | 20.3 |  | 33.6 |  | > 100 |  | 40.2 |  | 83.4 |  | 54.9 |  | 38.1 µM |  | 56.3 |  | 4.08 |
| C=C(C)[C@@H]1CC[C@]2(C(=O)NCCNCCNCCN)CC[C@]3(C)[C@H](CC[C@@H]4[C@@]5(C)CC[C@H](O)C(C)(C)[C@@H]5CC[C@]43C)[C@@H]12 | 5920 | 20.1 | 4400 | 18.7 | 7330 | 31.2 | 16500 | 33.5 | 16100 | 32.5 | 14600 nM | 28.4 | 14700 | 32 | 12200 | 25.7 µM | 13.5 | 32.3 | 14700 | 34.4 |
| CS(=O)(=O)c1ccc(-c2cnc(N)c(C(=O)Nc3ccccc3)n2)cc1 | 4960 | > 55.8 | 11400 | > 100 | 5620 | > 100 | 18800 | > 100 | 5170 | > 100 | > 100000 nM | > 100 | 10700 | > 100 | 15700 | > 100 µM | 25 | > 100 | > 100000 | > 100 |
| O=Cc1cn(Cc2cccc(Cl)c2)c2ccccc12 | 214 | 1.89 | 2390 | 16 | 7500 | 29.9 | 2570 | 19.5 | 263 | 14.7 | 13500 nM | 33.8 | < 11.2 | 15.5 | 2700 | 16.6 µM | 11.7 | 26.3 | 7370 | 23.1 |
| Nc1c(Br)c(=O)[nH]c(=O)n1COCCO |  | > 100 |  | > 100 |  | > 100 |  | > 100 |  | > 100 |  | > 100 |  | > 100 |  | > 100 µM |  | > 100 |  | > 100 |
| Cc1nn(-c2ccccc2)c2c1CC(=O)Nc1ccccc1-2 | 346 | > 100 | 322 |  | 20.3 |  | 384 | > 100 | 397 | > 100 | 432 nM and 87.2 nM | > 100 | 381 | > 100 | 80.5 | 2.92 µM and 0.552 µM | 0.623 | > 100 | 152 | > 100 |
| C=C1CC2(C[C@@H](c3ccccc3)O[C@@H](c3ccccc3)C2)OC1=O (stereo partly drawn) |  | 4.53 |  | 3.71 |  | 2.84 |  | 28.1 |  | 8.26 |  | 4.28 |  | 23.3 |  | 6.07 µM |  | 23.6 |  | 3.95 |
| Cn1c(=O)c(Oc2ccc(F)cc2F)cc2cnc(NC(CO)CO)nc21 | > 25000 | > 25 | > 25000 | > 25 | > 25000 | > 25 | > 25000 | > 25 | > 25000 | > 25 | > 25000 nM | > 25 | > 25000 | > 25 | > 25000 | > 25 µM | > 25 | > 25 | > 25000 | > 25 |
| CC1=CCC(OC(=O)C(C)(C)CCC(O)(C(=O)OC2(C(C)C)CCC3(C)OC3C2)C(C)C)(C(C)C)CC1 (stereo not drawn) | 255 | 1.05 | 113 | 0.381 | 229 | 7.93 | 615 | 1.63 | 81.4 | 0.272 | 733 nM | 1.48 | 570 | 1.39 | 83.3 | 0.166 µM | 0.603 | 1.46 | 340 | 1.13 |
| C=C(C)C(=O)OC1CC2=CC(CC3(C)OC3C3OC(=O)C(=C)C13)OC2=O (stereo not drawn) |  | 12.7 |  | 17.1 | 749 |  |  | 41.9 |  | 38.8 |  | 13.3 |  | 35.1 |  | 25.4 µM |  | 47.3 |  | 5.03 |
| Nc1ccn(CCO)c(=O)n1 |  | > 100 |  | > 100 |  | > 100 |  | > 100 |  | > 100 |  | > 100 |  | > 100 |  | > 100 µM |  | > 100 |  | > 100 |
